Results: patent US7504117B2, “Extract of Nelumbinis Semen for the treatment of depression” (Purimed Co., Ltd., priority 2003, dated 2009)

Columns and labels:
Type in all cases: in vivo
[1] = test system: CREB, BDNF and trkB genes; assay: Oligonucleotide microarray gene expression in cerebral frontal cortex; conditions: depression-induced animal
Text: Total RNA was isolated from the cerebral frontal cortex, and double-stranded cDNA was synthesized using the isolated RNA and an oligo (dT) 24-T7 primer. cRNA was synthesized by in vitro transcription using the synthesized cDNA, and was biotin-labeled and applied to an oligonucleotide microarray to determine gene expression patterns in each test group.

[2] = test system: 5-HT and NE neurotransmitters; assay: 5-HT and NE levels in chronic CMS model by microdialysis and HPLC-ECD
Method: Also, according to a biochemical method, the therapeutic efficacy of a candidate drug was primarily examined by measuring changes in 5-HT and Norepinephrine (NE) levels in a chronic CMS model by microdialysis and HPLC-ECD. Catecholamine content was measured using an HPLC system equipped with an electrochemical detector. A mobile phase containing 0.05 M monobasic sodium phosphate, 0.1 N sodium acetic acetate and 1% methanol was adjusted to pH 4.4 with a phosphate buffer for HPLC. […] was composed of a Supelcosil LC-8-DB 3-μm column (150×4.6 mm, Supelco, Bellefonte, Pa.) protected by an LC-18 guard column.

[3] = test system: CREB, BDNF and trkB proteins; assay: Western blotting of CREB, BDNF and trkB proteins in rat cerebral frontal cortex
Method: Thirdly, an increase in the antidepressive markers, CREB, BDNF and trkB proteins, was examined in the rat cerebral frontal cortex by Western blotting, as follows. A behavioral test in rats was carried out for a period of three weeks, and the rats were administered with each drug. The brain frontal cortex was excised and centrifuged, and the supernatant was recovered. Each sample was mixed with a SDS-PAGE sample buffer to reduce proteins and boiled to denature proteins. Samples were loaded onto a SDS-PAGE (sodium dodecyl sulfate poly acrylamide gel electrophoresis) gel and run at 100-200 V for about 1-2 hrs. The SDS-PAGE gel was transferred onto a PVDF or nitrocellulose membrane by electro-transferation. The membrane was incubated with a primary antibody for a target protein, washed and incubated with a secondary antibody. Then, the target protein was detected by an enhanced chemiluminescent method.

[4] = test system: CREB, BDNF and trkB proteins; assay: 2-DE of CREB, BDNF and trkB proteins in rat cerebral frontal cortex
Method: Fourthly, an increase in the antidepressive markers, CREB, BDNF and trkB proteins, was examined in the rat cerebral frontal cortex by 2-DE, as follows. A behavioral test in rats was carried out for a period of three weeks, and the rats were administered with each drug. The brain frontal cortex was excised and centrifuged, and the supernatant was recovered. Each sample was mixed with an IEF sample buffer and loaded onto an IEF gel. Proteins were separated according to isoelectric point by isoelectric focusing (IEF) in the first dimension and according to molecular weight by SDS-PAGE at 100-200 V for about 1-2 hrs in the second dimension. The gel was stained by a Gel-Code Blue staining method and evaluated for elevated or newly emerged proteins by the antidepressive substances. The elevated or newly emerged proteins by the antidepressive substances were subjected to mass spectrometry.

[5] = test system: cortisol; assay: Urinary cortisol concentration (125I-cortisol assay) in rats; conditions: rat urine
Method: First, changes in concentrations of cortisol, which is a representative marker to determine whether the immune suppression has been overcome, according to administration of the Nelumbinis Semen extract were examined, as follows. After urine samples were collected from rats,
(1) 1.0 ml of urine was placed into a tube with a cap, 2.0 ml dichloromethane was added to the tube, and the tube was covered with the cap with caution;
(2) the mixture was vortexed for 5-10 min;
(3) the mixture was centrifuged at 1500×g (rpm), the upper layer was aspirated, and 50 μl of the lower layer were aliquotted into coated tubes;
(4) samples were evaporated for dryness.
Urinary cortisol concentrations were measured as follows.
(1) The coated tubes were individually labeled with NSB, Std (A-F), a control (CON6 No. 5) and sample numbers (for NSB, a green tube was used).
(2) 25 μl of each of NSB, Std(A-F), a control (CON6 No. 5) and samples was added to the corresponding tube (free cortisol was added to the completely dried coated tube, and 25 μl of Std. A was added to the NSB tube).
(3) 1.0 ml of ^125I-cortisol was added to the tubes, followed by mixing.
(4) The tubes were incubated in a water bath at 37° C. for 45 min and aspirated.
(5) After the content of the tubes was completely aspirated, radioactivity was measured for at least 1 min using a […].

[6] = test system: IL-2; assay: Blood IL-2 concentration (luminometric immunoassay) in rats; conditions: rat blood
Method: (1) 100 μl of assay diluent QD6-23 were aliquotted onto a microplate strip;
(2) 50 μl of each sample and a standard were aliquotted onto the strip;
(3) the strip was incubated with shaking at room temperature for 2 hrs;
(4) the strip was washed four times;
(5) 200 μl of an IL-2 conjugate was aliquotted onto the strip, and the strip was incubated with shaking at room temperature for 3 hrs;
(6) 200 μl of a substrate (luminol+hydrogen peroxide) was aliquotted onto the strip, and the strip was incubated at room temperature for 20-40 min;
(7) emitted light was measured using a luminometer; and
(8) IL-2 concentrations were determined using a standard quantitative curve.

[7] = test system: WBC; assay: WBC counting in rat blood (volume, conductivity, light scattering)
Method: Thirdly, changes in WBC cell number, which is a representative marker to determine whether the immune suppression has been overcome, according to administration of the Nelumbinis Semen extract, was examined, as follows. After blood samples were collected from rats, cell volume, conductivity and light scattering were measured.
Cell volume was measured according to the Coulter Principle, which is universally recognized as a reference method for sizing of volumes. An aperture between two electrodes is placed in a cell flow, and direct current flows between the electrodes. When WBC maintained at nearly natural states passes through the aperture, electrical resistance to the direct current flow increases, thus generating a voltage pulse being in proportion to cell volumes. The size of the pulse is one of the distinct features allowing determination of the type of WBC. However, to distinguish between two types of cells with similar size, a different phenotype allowing the distinction of two types of cells should be measured. For example, mature basophils and small lymphocytes are about 9-12 jjm in diameter, and immature prolymphocytes and mature neutrophils are 12-14 μm in diameter. Different types of cells with similar size are difficult to determine based on only their size, and thus, in this case, conductivity and light scattering are simultaneously measured. […]

[8] = test system: lymphocytes; assay: Lymphocyte cell number in rat blood (automatic analyzer)
Text: Fourthly, changes in cell number of lymphocytes, which is a representative marker to determine whether the immune suppression has been overcome, according to administration of the Nelumbinis Semen extract, was examined as follows. After blood samples were collected from rats, changes in lymphocyte cell number were examined by the following method.
When diluted blood corpuscles are suspended in an electrolyte solution (Isoton sol.) that is a separate […], the electrolyte suspension of particles is suctioned for 4 sec through an aperture with a predetermined size. The aperture is placed between an internal electrode and an external electrode, and a current flows between the electrodes. When particles pass through the aperture between the two electrodes, resistance increases while voltage decreases. The difference between decreased voltage and ground voltage is expressed as height by a threshold circuit. The number of pulses indicates the number of particles, and the amplitude of pulses is in proportion to the volume of corpulscles.
2. Assay Method: Automatic Analyzer
3. Machine Used: ADVIA120, Bayer, USA

## CNCCC(Oc1ccc(C(F)(F)F)cc1)c1ccccc1 (stereo not drawn) [Prozac, fluoxetine]
[1]
  expression level of BDNF gene: significantly increase
  expression level of CREB gene: significantly increase
  expression level of trkB gene: significantly increase
[2]
  level of 5-HT: significantly increase
  level of NE: significantly increase
[3]
  protein level of BDNF: significantly increase
  protein level of CREB: significantly increase
  protein level of trkB: significantly increase
[4]
  protein level of BDNF: significantly increase
  protein level of CREB: significantly increase
  protein level of trkB: significantly increase
[5]
  cortisol concentrations: levels similar to a normal group
[6]
  IL-2 concentrations: levels similar to a normal group
[7]
  cell number of WBC: levels similar to a normal group
[8]
  cell number of lymphocytes: levels similar to a normal group
